Assay results reported in ChEMBL document CHEMBL1201862, “PubChem BioAssay data set” (2004).
Activity calls are given as the source filed them.

Experiments:
[1] = biological target: Mitogen-activated protein kinase 10 (Homo sapiens, UniProt P53779); assay: Dose response biochemical screening assay for inhibitors of c-Jun N-Terminal Kinase 3 (JNK3). [Related pubchem assays: 746 ]
[2] = reduction of Shn3 3'UTR-driven luciferase in osteoblasts – cell-based, Clone20 osteoblasts, firefly luciferase, cherry-picked, dose response (AID 624132); format: functional;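 note: firefly luciferase luminescence from reporter carrying the Shn3 3'UTR in osteoblasts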
[3] = biological target: T1, Calpain-2 catalytic subunit (Sus scrofa, UniProt P43367); assay: m-calpain protease blockers, concentration series – biochemical, fluorogenic peptide substrate, dose response (AID 1420); format: functional
T1 sequence (P43367 whole entry): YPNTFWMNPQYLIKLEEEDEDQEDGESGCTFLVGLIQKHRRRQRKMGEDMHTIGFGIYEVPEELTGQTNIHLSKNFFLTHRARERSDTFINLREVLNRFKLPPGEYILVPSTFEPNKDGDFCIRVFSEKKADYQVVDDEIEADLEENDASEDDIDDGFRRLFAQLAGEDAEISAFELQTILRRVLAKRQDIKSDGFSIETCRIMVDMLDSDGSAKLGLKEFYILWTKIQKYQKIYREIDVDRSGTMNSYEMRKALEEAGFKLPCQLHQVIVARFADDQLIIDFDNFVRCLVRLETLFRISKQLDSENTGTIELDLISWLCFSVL

[4] = loss of viability in HepG2 cells – cell-based, CellTiter-Glo, cherry-picked, cytotoxicity control for Shn3 inhibitor project, dose response (AID 624134); format: functional
[5] = non-specific 3'UTR reporter inhibition in Clone20-Shn3RL – cell-based, Renilla luciferase, cherry-picked, counter-screen for Shn3 inhibitor project, dose response (AID 624133); format: functional
Leucine aminopeptidase = biological target: T2, Leucine aminopeptidase (Plasmodium falciparum 3D7, UniProt Q8IL11); assay: P. falciparum M17LAP inhibitors, primary screen, biochemical, fluorogenic H-Leu-NHMec substrate, 1536-well (AID 1619); format: functional
T2 sequence (Q8IL11 whole entry): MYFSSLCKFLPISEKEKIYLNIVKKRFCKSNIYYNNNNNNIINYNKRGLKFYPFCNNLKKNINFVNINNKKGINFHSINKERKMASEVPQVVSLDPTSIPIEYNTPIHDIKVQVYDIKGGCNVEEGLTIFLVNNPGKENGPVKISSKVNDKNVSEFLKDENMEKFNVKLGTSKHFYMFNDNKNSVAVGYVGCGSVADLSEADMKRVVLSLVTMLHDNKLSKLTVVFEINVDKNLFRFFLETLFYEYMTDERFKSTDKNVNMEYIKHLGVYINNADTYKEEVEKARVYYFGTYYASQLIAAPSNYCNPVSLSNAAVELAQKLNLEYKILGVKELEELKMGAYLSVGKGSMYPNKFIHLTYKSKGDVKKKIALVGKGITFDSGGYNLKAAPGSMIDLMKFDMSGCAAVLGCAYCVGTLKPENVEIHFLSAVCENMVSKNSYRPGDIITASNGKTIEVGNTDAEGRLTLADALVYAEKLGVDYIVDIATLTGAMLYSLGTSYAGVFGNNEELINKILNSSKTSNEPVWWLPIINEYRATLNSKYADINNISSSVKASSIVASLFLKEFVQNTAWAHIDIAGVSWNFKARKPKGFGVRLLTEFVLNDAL

[6] = growth inhibition of yeast DHODH-expressing 3D7 parasites – SYBR Green, dry powder samples, dose response (AID 1159570); format: functional, cell-based;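 note: parasite growth measured after 72 hours of compound exposure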
[7] = growth inhibition of PfATP4-mutant resistant parasites – NITD609-resistant line, SYBR Green, dry powder, dose response (AID 1159571); format: functional, cell-based;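 note: parasites synchronized at ring stage by sorbitol before testing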
[8] = toxicity to human HepG2 hepatoma cells – cell-based, plate reader, dry powder samples, cytotoxicity control, dose response (AID 1159569); format: functional;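 note: inhibitor potency with signal falling toward the positive control level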
[9] = Dd2 malaria parasite growth inhibition potency – SYBR Green, dry powder samples, dose response (AID 1159566); format: functional, cell-based;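 note: potency for growth inhibition with lower SYBR green DNA signal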
[10] = biological target: T3, Ubiquitin-conjugating enzyme E2 N (Homo sapiens, UniProt P61088); format: functional;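 note: Dose-response confirmation in a TR-FRET assay detecting UBC13-driven polyubiquitin chain formation, inhibition measured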
T3 sequence (P61088 whole entry): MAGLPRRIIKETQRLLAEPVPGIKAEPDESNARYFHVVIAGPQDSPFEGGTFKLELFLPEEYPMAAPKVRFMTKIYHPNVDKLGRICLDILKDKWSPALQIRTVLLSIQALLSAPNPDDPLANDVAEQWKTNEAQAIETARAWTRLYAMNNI

[11] = P. falciparum Dd2 growth inhibitors, dose response, SYBR Green, cherry-picked samples (AID 1159567); format: functional, cell-based

Sequence of Mitogen-activated protein kinase 10 (P53779 whole entry): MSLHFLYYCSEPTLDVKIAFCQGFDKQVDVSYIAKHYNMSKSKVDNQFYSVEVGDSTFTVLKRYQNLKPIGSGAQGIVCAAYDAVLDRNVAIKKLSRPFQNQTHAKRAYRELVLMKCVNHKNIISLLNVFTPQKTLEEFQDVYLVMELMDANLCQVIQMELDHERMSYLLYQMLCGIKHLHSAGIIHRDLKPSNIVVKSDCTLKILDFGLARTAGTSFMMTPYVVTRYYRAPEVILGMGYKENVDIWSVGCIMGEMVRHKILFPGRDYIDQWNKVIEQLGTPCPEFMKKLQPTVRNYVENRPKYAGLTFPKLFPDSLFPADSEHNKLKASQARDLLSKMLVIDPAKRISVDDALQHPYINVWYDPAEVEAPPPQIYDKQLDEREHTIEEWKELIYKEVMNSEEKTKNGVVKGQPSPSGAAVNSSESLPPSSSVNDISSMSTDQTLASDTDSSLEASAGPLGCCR

| Structure (SMILES) | AC50 [6] | AC50 [7] | AC50 [8] | AC50 [9] | other results |
| --- | --- | --- | --- | --- | --- |
| CCC1S/C(=C(\C#N)C(N)=O)N(c2ccc(F)cc2)C1=O (stereo not drawn) | – | – | – | – | IC50 [1]: 32.6 µM (not active) |
| CC1CCC2C(=O)N(c3ccc(Cc4ccncc4)cc3)C(=O)C2C1 (stereo not drawn) | – | – | – | – | AC50 [2]: 2.65 µM (active); IC50 [3]: 13.3 µM (not active); AC50 [4]: 47.7 µM (active); AC50 [5]: 5.74 µM (active) |
| CCOC(=O)C1=C(C)OC(N)=C(C#N)C1c1cc2ccccc2nc1N1CCCCC1 (stereo not drawn) | – | – | – | – | IC50 [1]: > 93.1 µM (not active) |
| Cc1ccc(Nc2cnn(C34CC5CC(CC(CC(=O)O)(C5)C3)C4)c(=O)c2Cl)cc1 | – | – | – | – | IC50 (Leucine aminopeptidase): 44.1 µM (active) |
| OC[C@@H]1[C@@H](c2ccccc2)C2(CN(Cc3ccccc3F)C2)N1Cc1ccccc1F | 2.31 µM (active) | 1.94 µM (active) | 35.8 µM (active) | 1.65 µM (active) | – |
| Cc1ccc(/N=C2\C(Cl)=C(O)OC2OC(=O)c2ccccc2C)cc1 (stereo not drawn) | – | – | – | – | IC50 [10]: > 20 µM (inactive); IC50 [3]: 12.6 µM (not active) |
| COc1ccc(C#Cc2ccc([C@H]3[C@H]4CN(C(=O)c5ccccc5)CC(=O)N4[C@H]3CO)cc2)cc1 | 3.84 µM (active) | 2.13 µM (active) | 23.5 µM (active) | 2.26 µM (active) | AC50 [11]: 2.52 µM (active) |
| CO[C@H]1CN(C)C(=O)c2cc(NC(=O)C3CC3)ccc2OC[C@H](C)N(Cc2cc(F)ccc2F)C[C@H]1C | 4.89 µM (active) | 1.99 µM (active) | 45.2 µM (active) | 1.35 µM (active) | AC50 [11]: 2.14 µM (active) |
